Data reported in US20080009546A1 (Chevron U.S.A. Inc., priority 2005, published 2008).

Experiment: Dissolving compounds to make 10 mM stock solution
Assay type: physicochemical
Conditions: deionized water or assay friendly solvents, hot water
Experimental: Following assay establishment, the test compounds were tested for binding affinities. The concentrations selected for the experiments were chosen according to what was found for memantine in our assay. The first task was to dissolve the compounds and make up the 10 mM stock solution for further experiments. Those compounds that were made into salt format were easy to dissolve in deionized water, but the other compounds were difficult to bring into solution. Several “assay friendly” solvents have been tried, such as molecusol, acetic acid and propylene glycol followed by putting the vial into hot water.

For `O=C(O)C12CC3C4CC5(C(=O)O)CC3C(C1)C(C5)C4C2` [MDT-20], the “dissolution for 10 mM stock solution” value was “did not go into solution, or came out with time”.

In the case of `O=C(O)C12CC3CC4C1CC1CC2C(C3)C4(C(=O)O)C1` [MDT-19], the “dissolution for 10 mM stock solution” value is reported as “did not go into solution, or came out with time”.
